# Reference: US20140051729A1, “COMPOSITIONS AND METHODS FOR TREATING DEGENERATIVE MUSCLE CONDITIONS” (University of Washington, priority 2011, published 2014)
# How the values were obtained:
# [1] = test system: dystrophic flies (w; +/+; Dys^det1/Dys^det1); assay: Myofibril analysis of muscle wasting in dystrophic flies fed S1P promoting agents; format: in vivo, Drosophila; settings: 217 μM in feed, three feeding cycles
# Procedure: The effect of THI, a derivative of THI ((E)-1-(4-((1R,2S,3R)-1,2,3,4-tetrahydroxybutyl)-1H-imidazol-2-yl)-ethanone oxime) (“THI-oxime”), and a sphingosine analog (FTY720) on muscle wasting in dystrophic Drosopila flies was observed. Before feeding, 4 day old dystrophic flies (genotype: w; +/+; Dys^det1/Dys^det1) were placed in empty vials and starved for 6 hours. The flies were then provided access to one of a solution of 0.05 mg/mL (217 μM) 2-Acetyl-4(5)-tetrahydroxybutyl Imidazole (THI), or 217 μM FTY720, or 217 μM THI-oxime, in 5% light corn syrup in water for 16-18 hrs. After feeding, the flies were placed in new yeasted vials for 6-7 hrs. Flies were then transferred to empty vials with access to a 217 μM solution of THI, FTY720 or THI-oxime in a 5% light corn syrup in water for 16-18 hrs. This feeding cycle was repeated for a third time. After feeding for three cycles, the flies were placed in new yeasted vials. The 7-day old flies that had been administered the THI-oxime were analyzed immediately after the last feeding. The flies that has been administered THI and FTY720 were analyzed as 10-day old flies, three days after the last feeding with THI and FTY720.
# Myofibril immunochemistry analysis was performed as disclosed herein. For each treatment group, 5 flies were analyzed, and 3 muscles per fly and 2 myofibrils per muscle were analyzed. Two tailed Student's t test was used to evaluate significance.
# Flies were dipped in 95% EtOH and then dissected in 1×PBS (pH 7.4). Heads and abdomens were removed, and the thoraxes opened. Samples were stained using a modified ovary staining protocol 3. Samples were then fixed in 5% paraformaldehyde (Electron Microscopy Sciences) for 1 hour, rinsed in PBT (PBS/0.2% Triton X-100 v/v) 4 times, and then blocked for 1 hour in PBTB (PBT, 0.4% BSA w/v, 5% Normal Goat Serum v/v) at room temperature. […] For each genotype, 4-5 flies were analyzed, and 6-7 muscles per fly were analyzed.
# [2] = test system: mdx:myf5^nlacz/+ mice; assay: Intramuscular S1P after CTX injury in mdx:Myf5nlacZ/+ mice (x-gal, myogenin, eMyHC staining); format: in vivo, mouse
# Procedure: S1P is involved in muscle satellite cell turnover, myoblast differentiation, and muscle regeneration in non-diseased mice. […] The effects of S1P treatment were examined following CTX induced acute injury in dystrophic muscles. To identify myogenic cells, mdx:myf5^nlacz/+ mice were used carrying the nuclear lacZ reporter driven by the endogenous Myf5 gene. CTX was applied to both TA muscles (n=3 mice, 3 month-old mdx:myf5^nlacz/+ males), then S1P was injected intramuscularly into left TAs and a vehicle control into right TAs daily for the first three days following injury. TAs were harvested on day 4 post injury for analysis of β-galactosidase positive (Myf5+) nuclei.
# Right and left TAs of three, 3 month old male mdx4cv:Myf5nlacZ/+ were injected with […] cardiotoxin (Calbiochem) in PBS from Naja nigrcollis. For the dysferlinopathy study, right and left TAs of 9 month old male and female A/J mice (JAX Mice, Bar Harbor, Me.) were injected with […] cardiotoxin (Calbiochem) in PBS from Naja nigrcollis. S1P (Enzo; Calbiochem) preparation was done according to manufacturer's instructions. Briefly, S1P was dissolved in methanol (0.5 mg/ml) and aliquoted, then the solvent was evaporated with a stream of nitrogen to deposit a thin film on the inside of the tube. Aliquots were dissolved with 4 mg/ml BSA (fatty acid free) to make 500 uM stocks. Directly following cardiotoxin injection, 500 uM S1P in PBS with 4 mg/ml BSA was injected in left TAs (20 ul), daily until day 3 post-injury at which time animals were euthanized and muscles were harvested for freezing. Right TAs were injected with an equal volume of PBS with 4 mg/ml BSA as vehicle controls. In a separate experiment TAs of four 2.5 month-old female mdx4cv were injected with S1P or vehicle under the same conditions stated above, in the absence of injury.
# All mouse muscles were frozen directly in OCT with liquid nitrogen cooled in isopentane and sections of 8 μm thickness were obtained. Tissue for x-gal staining, was fixed for 10 min with 2% formaldehyde/0.2% glutaraldehyde and incubated overnight at 37° C. with staining buffer (PBS with 1 mg/ml x-gal, 5 mM potassium ferricyanide, 5 mM potassium ferrocyanide, and 2 mM […] (all from Fisher). Oil Red-O and Picrosirius red staining were done following established protocols. For eMyHC staining, tissue was first fixed with 2% formaldehyde for 5 min, treated with streptavidin/avidin blocking kit (Vector labs), and blocked with IgG block from M.O.M kit (Vector Labs) for 5 hrs at 4° C. Following blockade, concentrated mouse anti-eMyHC (clone F1.652 received at 357 μg/ml IgG) obtained from the developmental studies hybridoma bank (DHSB, University of Iowa) was administered at 1:400 dilution, overnight at 4° C. The remainder of the staining was done following mouse-on-mouse (M.O.M) kit staining instructions. For laminin staining tissue was also fixed with 2% formaldehyde for 5 min, and then treated with polyclonal rabbit anti-laminin (Sigma) for 1 hr at a 1:400 dilution in PBS+1% BSA. Following washes, Alexa Fluor 488 conjugated goat anti-rabbit IgG (Invitrogen) was administered at 1:800 dilution for 1 hr. Controls omitting the primary antibody were included with all staining. Staining quantifications were all done using ImageJ v1.40 (Wayne Rasband, NIH) cell counter plugin (Kurt De Vos, University of Sheffield). Calculations, statistics, and graphs were generated with Microsoft Excel. […]
# [3] = test system: Akt/mTOR signaling; assay: Western blot of uninjured TA muscle of mdx mice after intramuscular S1P; format: in vivo, mouse; settings: three days of daily S1P injections, vs vehicle TA
# Procedure: To discern if the S1P dependent increase in mdx muscle fiber size was due to hypertrophy, the activation of Akt/mTOR signaling was examined. S1P induced hypertrophy has been described in cultured cardiomyocytes, which was accompanied by activation of Akt and S6 kinase. In turn, Akt and mTOR signaling via S6 kinase, an activator of ribosomal S6 implicated in protein synthesis, has been described as sufficient to induce skeletal muscle hypertrophy. Therefore it was determined if the increase in muscle fibers by S1P was mediated by Akt/mTOR signaling. Since THI induces a S1P increase throughout the body, S1P was administered directly into muscle in mdx mice and levels of activated/phosphorylated Akt, mTOR, and S6 were measured. S1P was injected directly into uninjured TA muscle to measure potential effects on these pathways in the absence of injury. As before, S1P was injected into left TAs and vehicle into right TAs of the same animals (FIG. 6a). […]
# Tissue for western blot analysis was snap frozen in liquid nitrogen and subsequently homogenized. […] Protein extracts were separated using BioRad Tris-HCl ready gels 4-20% linear gradient and transferred to polyvinylidene difluoride (PVDF) membranes with a wet transfer system (BioRad). […] The signals were detected using an enhanced chemiluminescence kit (Millipore) and CL-XPosure Films (Thermo Scientific) were analyzed using ImageJ.
# [4] = test system: A/J mice; assay: S1P in dysferlinopathy model after CTX injury (picrosirius red fibrosis); format: in vivo, mouse; settings: A/J mice 9 month old, S1P intramuscular daily three days, 6 days post injury, vs vehicle
# Procedure: The A/J mouse strain (JAX Mice, Bar Habor, Me.) lacks dysferlin and is a model for dysferlinopathy. The effects of S1P treatment of A/J mice was examined following CTX induced acute injury. CTX was applied to both TA muscles (2× male, 2× female, 9 month old), then S1P was injected intramuscularly into left TAs and a vehicle control (saline) in right TAs daily for the first three days following CTX injury. The TAs were harvested and examined for muscle fibrosis (picrosirius red staining) 6 days post injury.
# Right and left TAs of three, 3 month old male mdx4cv:Myf5nlacZ/+ were injected with […] cardiotoxin (Calbiochem) in PBS from Naja nigrcollis. For the dysferlinopathy study, right and left TAs of 9 month old male and female A/J mice (JAX Mice, Bar Harbor, Me.) were injected with […] cardiotoxin (Calbiochem) in PBS from Naja nigrcollis. S1P (Enzo; Calbiochem) preparation was done according to manufacturer's instructions. Briefly, S1P was dissolved in methanol (0.5 mg/ml) and aliquoted, then the solvent was evaporated with a stream of nitrogen to deposit a thin film on the inside of the tube. […]
# All mouse muscles were frozen directly in OCT with liquid nitrogen cooled in isopentane and sections of 8 μm thickness were obtained. […] Staining quantifications were all done using ImageJ v1.40 (Wayne Rasband, NIH) cell counter plugin (Kurt De Vos, University of Sheffield). […]
# [5] = test system: mdx mice; assay: EDL muscle myography in mdx mice; format: in vivo, mouse; settings: THI-oxime IP twice-daily two weeks, 75 ug per day, at 120 Hz; vehicle 58 at 100 Hz
# Procedure: The effect of THI administration on muscle function and recovery in mdx mice was analyzed. The mice were injected intraperitoneally with THI in PBS or vehicle alone (PBS) twice-daily for two weeks. Total amount of THI delivered per day was 75 ug. Extensor digitorum longus (EDL) muscles were excised from the mice and equilibrated in ringer's solution with 95% O2/5% CO2 for a minimum of 15 minutes prior to stimulation. Myography was conducted using a DMT 820S myograph and data was recorded using PowerLab 4/30 acquisition system with LabChart Pro software v7.3.1 (both from ADI instruments, Colorado Springs, Colo.). Stimulations were conducted with a Grass Instrument S88X system (Grass Technologies, West Warwick, R.I.). Muscles were stimulated to establish optimal fiber length (Lf) and voltage at which maximum tetanic force was measured at 120 Hz within a 450 ms duration.
# Specific force was calculated as previously described in Gregorevic P. et al. (Gregorevic P. et al., Muscle Nerve. 2004 September; 30(3):295-304, PMID#15318340) by normalizing to whole muscle cross-sectional area (CSA). CSA is the quotient of […] muscle mass over the optimal muscle length (Lo) which is defined as the product of muscle fiber length (Lf) with the fiber length ratio (0.44 for EDL) and mammalian muscle density (1.06).
# Muscle recovery was measured after muscle was fatigued with stimulation over 6 minutes. […] Recovery was determined by examining muscle force at 5, 10, and 15 minutes after stimulation. […] Therefore, the administration of THI improved muscle recovery and function in dystrophic mice.
# The effect of THI-oxime administration on muscle function and recovery in mdx mice was analyzed. The mice were injected intraperitoneally with THI-oxime (n=3) or PBS vehicle alone (n=4) twice-daily for two weeks and then analyzed between 1-4 days following the final day of injection. Total amount of THI-oxime delivered per day was 75 ug. Prior to euthanasia, the animals were anesthetized with 0.5 mg/g weight avertin diluted in PBS. EDL muscles were excised from the mice and equilibrated in ringer's solution (120 mM NaCl, 4.7 mM KCl, 3.15 mM MgCl2, 1.3 mM NaH2PO4, 25 mM NaHCO3, 11 mM Glucose, 1.25 mM CaCl2, pH 7.2) with 95% O2/5% CO2 for a minimum of 15 minutes prior to stimulation. All functional experiments were carried out with buffer solutions at 25° C. under constant oxygenation. Myography was conducted using a DMT 820S myograph and data was recorded using PowerLab 4/30 acquisition system with LabChart Pro software v7.3.1 (both from ADI instruments, Colorado Springs, Colo.). […] Muscles were stimulated to establish optimal fiber length (Lf) and voltage at which maximum tetanic force was measured at 120 Hz within a 450 ms duration. […]
smiles,measurement,setting,value
"CCCCCCCCc1ccc(CCC(N)(CO)CO)cc1 [FTY720, 2-amino-2-[2-(4-octylphenyl)ethyl]propane-1,3-diol]",wild-type myofibrils,"[1]; 10-day old flies, three days after last feeding",73.83%
"CCCCCCCCCCCCC/C=C/[C@@H](O)[C@@H](N)COP(=O)(O)O [S1P, Sphingosine-1-phosphate]",numbers of Myf5+ nuclei in areas with severe CTX damage,"[2]; S1P intramuscular daily for three days, TAs harvested day 4, vs vehicle TA",four-fold increase
same,Myf5+ cells for the entire cross-sectional area of treated TA,"[2]; S1P intramuscular daily for three days, day 4, vs vehicle TA",gross increase
same,increase in the number of eMyHC+ fibers,[2]; S1P treated TAs vs vehicle,3.6 fold
same,size of regenerating myofibers (minimum diameter of largest eMyHC+ fibers),[2]; S1P treated TAs vs vehicle,significantly greater
same,number of myogenin positive nuclei,[2]; S1P treated vs vehicle treated CTX injured TAs,slightly higher but not significantly different
same,levels of S6 and phosphorylated S6,[3],significantly increased
same,levels of phosphorylated Akt and mTOR,[3],not significantly higher
same,average percentage of fibrosis in CTX injured TA muscles,[4],significantly decreased
"C/C(=N\O)c1nc([C@@H](O)[C@H](O)[C@H](O)CO)c[nH]1 [THI-oxime, (E)-1-(4-((1R,2S,3R)-1,2,3,4-tetrahydroxybutyl)-1H-imidazol-2-yl)-ethanone oxime]",wild-type myofibrils,"[1]; 7-day old flies, negative control 39.05%",67.62%
same,maximum specific force of EDL muscle,[5],73 KN/m^2
